The source of these data is patent US20120141448A1, “Method for increasing muscle mass and strength” (priority 2010, published 2012).

The subject of assay [1] is known non-responder to creatine supplementation. As to the kind of experiment: Creatine non-responder RJ: two-week strength training program, total body weight and total strength. The format is in vivo, human. The settings on record: subject one. Here is the method: A. patient one, 198 cm tall, a known non-responder to creatine supplementation, followed a two-week strength training program while testing whether supplementation with PA-enriched-lecithin improves creatine response. Total starting total body weight and strength were measured on day one, followed by the training program, consisting of concentric and eccentric isotonic lifting exercises that worked the upper and lower body muscle groups. Either free weights or weight machines were used once or twice weekly. Strength training was performed three times per week with at least one day of rest between sessions, which alternated between lower and upper body exercises. During the two-week period, a total of six training sessions (three upper and three lower) were performed. Each exercise included two sets of ten repetitions at 30% and 60% 1RM, followed by two sets of 3 to 5 repetitions at 90% 1RM.
The lower body exercise included seven different exercises: seated leg press, leg curls, standing calf raises, leg extensions, inclined leg lift, inverted situps (back extension) and 45° inclined situps. The upper body exercise consisted of seven different exercises: bench press, latissimus pulldown, triceps pulldown, inclined dumbbell curls, seated preacher curls, seated rows, and CyBec Pec Fly.
Total upper and lower body weight lifted were calculated as the average weight lifted during the last three sets multiplied by the average repetition in each set. Total strength was determined as the combined lower and upper total weight lifted. Total body weight was determined after day 8 and day 15. Strength was measured on days 1 and 15.
A four-week rest period followed the first two-week training program. The same program was repeated twice, the control was supplementation of creatine monohydrate (Creapure, Alzchem, Germany) 4 times 5 grams per day for five days of loading, followed by nine days of five grams creatine monohydrate. During the second program, creatine monohydrate was given as for the control program with the addition of PA-enriched lecithin (Chemi Nutra, White Bear Lake, Minn.) which was about 50% PA.

Assay [2] shares this test system. As to the kind of experiment: Creatine non-responder MP: three-week strength training program, total body weight and total strength. The format is in vivo, human. The settings on record: subject two. Here is the method:
B. patient two, 185 cm tall, also a known non-responder to creatine supplementation, followed a three-week strength training program while testing whether supplementation with PA-enriched-lecithin improves creatine response. Total starting total body weight and strength were measured on day one, followed by the training program, consisting of concentric and eccentric isotonic lifting exercises that worked the upper and lower body muscle groups with either free weights or weight machines used once or twice weekly. Strength training was performed three times per week with at least one day of rest between sessions, which alternated between lower and upper body exercises. During the three-week period, a total of […] were performed. Each exercise included two sets of ten repetitions at 40% and 65% 1RM, followed by two sets of 3 to 5 repetitions at 90% 1RM.
The lower body exercise included seven different exercises: seated leg press, leg curls, standing calf raises, leg extension, inclined leg lift, inverted situps (back extension) and 45° inclined situps. The upper body exercise consisted of seven different exercises: bench press, latissimus pulldown, triceps pulldown, inclined dumbbell curls, seated preacher curls, seated rows, and CyBec Pec Fly. Total upper and lower body weight lifted were calculated as the average weight lifted during the last three sets multiplied by the average repetition in each set. Total strength was determined as the combined lower and upper total weight lifted. […] Strength was measured on days 1 and 22.
A four-week rest period followed the first three-week training program. The same program was repeated twice, the control was supplemented with creatine monohydrate (Creapure®, Alzchem, Germany) 5 grams per day of five grams creatine monohydrate for 21 days. During the second program, creatine monohydrate was given as for the control program with the addition of 1 gram per day PA-enriched lecithin (Chemi Nutra, White Bear Lake, Minn.) which was about 50% PA.

As for `CN(CC(=O)O)C(=N)N.O` [Creatine Supplement, creatine monohydrate], the “weight, day 1” value is 88.8 kg in assay [1] (day 1 of two-week program) and 81.9 kg in assay [2] (day 1 of three-week program). Further, the total strength increase in assay [1] (day 1 vs day 15) and in assay [2] (day 1 vs day 22) was 5% each time. For the same molecule, the “weight, day 8” value in assay [1] (day 8 of two-week program) stood at 88.3 kg. In addition, the “weight, day 15” value in assay [1] (day 15 of two-week program) is recorded as 88.0 kg. Also, the “effect on body weight” value in assay [1] (two-week program) and in assay [2] (three-week program) was “not effective in preventing a slight weight loss” in each case. For the same molecule, in assay [2] (day 10 of three-week program), the “weight, day 10” value was found to be 81.5 kg. The “weight, day 22” value in assay [2] (day 22 of three-week program) worked out at 81.2 kg.
